Measurements: the OligoGym collection
Only the 19 paired bases of each siRNA are shown; overhangs and chemistry are not given here.

Tests used:
Test in all cases: five studies, different assays
Details in all cases: siRNA
DBI = biological target: DBI
GAPDH = biological target: GAPDH
Renilla luciferase = biological target: Renilla luciferase
PLK1 = biological target: PLK1
[1] = biological target: placental-type alkaline phosphatase
Also: test concentration or dose not given here.

Substance “sense AAACGAUUACUGACUUUCC / antisense GGAAAGUCAGUAAUCGUUU” has a target inhibition (DBI) of -18.6%.
Substance “sense AAAGUAGAAGAGCUAAAGA / antisense UCUUUAGCUCUUCUACUUU” has a target inhibition (DBI) of 71.8%.
In the case of “sense AAGAGCUAAAGAAAAAAUA / antisense UAUUUUUUCUUUAGCUCUU”, the target inhibition (DBI) is reported as 68%.
“sense AAGAUGCCAUGAAAGCUUA / antisense UAAGCUUUCAUGGCAUCUU” gave a target inhibition (DBI) of 50.7%.
Work on “sense AAGGACUCAUGACCACAGU / antisense ACUGUGGUCAUGAGUCCUU” yielded a target inhibition (GAPDH) of -17.4%.
“sense AAGUAUGACAACAGCCUCA / antisense UGAGGCUGUUGUCAUACUU” gave a target inhibition (GAPDH) of 94.2%.
For “sense AAGUGUAGUAGAUGUGAUU / antisense AAUCACAUCUACUACACUU”, the target inhibition (Renilla luciferase) was 87.9%.
“sense ACCAUGAGAAGUAUGACAA / antisense UUGUCAUACUUCUCAUGGU” was tested, and the target inhibition (GAPDH) was 92.5%.
In the case of “sense ACUGAGACAAUGCCUUGUU / antisense AACAAGGCAUUGUCUCAGU”, the target inhibition (DBI) is reported as 6.01%.
“sense AGAAUGAAUACAGUAUUCC / antisense GGAAUACUGUAUUCAUUCU” gave a target inhibition (PLK1) of 58%.
“sense AGAUCACCCUCCUUAAAUA / antisense UAUUUAAGGAGGGUGAUCU” gave a target inhibition (PLK1) of 72.5%.
“sense AGAUGCACCUGAUGAAAUG / antisense CAUUUCAUCAGGUGCAUCU” showed a target inhibition (Renilla luciferase) of 63.9%.
In the case of “sense AGAUGCCAUGAAAGCUUAC / antisense GUAAGCUUUCAUGGCAUCU”, the target inhibition (DBI) is reported as -9.13%.
Substance “sense AGAUUGUGCCUAAGUCUCU / antisense AGAGACUUAGGCACAAUCU” has a target inhibition (PLK1) of 68.5%.
In the case of “sense AGUUCGUCGUCCAACAUUA / antisense UAAUGUUGGACGACGAACU”, the target inhibition (Renilla luciferase) is reported as 66.5%.
Work on “sense AUCAUGAGAAAGUUAGAAC / antisense GUUCUAACUUUCUCAUGAU” yielded a target inhibition (Renilla luciferase) of 47.3%.
In the case of “sense AUGAAGAUCUGGAGGUGAA / antisense UUCACCUCCAGAUCUUCAU”, the target inhibition (PLK1) is reported as 55%.
With “sense AUGACAACAGCCUCAAGAU / antisense AUCUUGAGGCUGUUGUCAU” the target inhibition (GAPDH) was 58.3%.
With “sense AUGACUCAACACGCCUCAU / antisense AUGAGGCGUGUUGAGUCAU” the target inhibition (PLK1) was 58.4%.
“sense CAGCAUAUCUUGAACCAUU / antisense AAUGGUUCAAGAUAUGCUG” showed a target inhibition (Renilla luciferase) of 83.7%.
“sense CAGGGGGGAGCCAAAAGGG / antisense CCCUUUUGGCUCCCCCCUG” gave a target inhibition (GAPDH) of -24.4%.
With “sense CAGUUUCGAGGUGGAUGUG / antisense CACAUCCACCUCGAAACUG” the target inhibition (PLK1) was 52.6%.
Substance “sense CAUGAGAAGUAUGACAACA / antisense UGUUGUCAUACUUCUCAUG” has a target inhibition (GAPDH) of 92.4%.
With “sense CCAAAAGGGUCAUCAUCUC / antisense GAGAUGAUGACCCUUUUGG” the target inhibition (GAPDH) was 93.9%.
“sense CCCCUGGCCAAGGUCAUCC / antisense GGAUGACCUUGGCCAGGGG” gave a target inhibition (GAPDH) of -2.51%.
Work on “sense CGGAUGUUACCGAGAGCGA / antisense UCGCUCUCGGUAACAUCCG” yielded a target inhibition [1] of 32%.
In the case of “sense CGGCGCCCGGCCGGAUGUU / antisense AACAUCCGGCCGGGCGCCG”, the target inhibition [1] is reported as 60%.
Work on “sense CUACACGGUCCUCCUAUAC / antisense GUAUAGGAGGACCGUGUAG” yielded a target inhibition [1] of 21.2%.
“sense CUUCAUAGCGCACGUCAUG / antisense CAUGACGUGCGCUAUGAAG” showed a target inhibition [1] of 16.5%.
Work on “sense CUUUGAGCCUGGAGACAUG / antisense CAUGUCUCCAGGCUCAAAG” yielded a target inhibition [1] of 79%.
With “sense GAAACGGUCCAGGCUAUGU / antisense ACAUAGCCUGGACCGUUUC” the target inhibition [1] was 5.96%.
With “sense GAACAAAGGAAACGGAUGA / antisense UCAUCCGUUUCCUUUGUUC” the target inhibition (Renilla luciferase) was 84.4%.
Work on “sense GAAUCUGGUGCAGGAAUGG / antisense CCAUUCCUGCACCAGAUUC” yielded a target inhibition [1] of 56.5%.
“sense GAAUUUGCAGCAUAUCUUG / antisense CAAGAUAUGCUGCAAAUUC” was tested, and the target inhibition (Renilla luciferase) was 84.8%.
In the case of “sense GACAACAGCCUCAAGAUCA / antisense UGAUCUUGAGGCUGUUGUC”, the target inhibition (GAPDH) is reported as 94.2%.
For “sense GACUGAGACGAUCAUGUUC / antisense GAACAUGAUCGUCUCAGUC”, the target inhibition [1] was 85%.
For “sense GAGUGCAGCACGCCUCGCC / antisense GGCGAGGCGUGCUGCACUC”, the target inhibition [1] was -5%.
For “sense GAUCAAAUCUGAAGAAGGA / antisense UCCUUCUUCAGAUUUGAUC”, the target inhibition (Renilla luciferase) was 90.9%.
Substance “sense GAUCAUCAGCAAUGCCUCC / antisense GGAGGCAUUGCUGAUGAUC” has a target inhibition (GAPDH) of 70.8%.
“sense GAUGUCCAUGGAAAUAUCC / antisense GGAUAUUUCCAUGGACAUC” was tested, and the target inhibition (PLK1) was 43.9%.
For “sense GCACCACCAACUGCUUAGC / antisense GCUAAGCAGUUGGUGGUGC”, the target inhibition (GAPDH) was 38.6%.
Substance “sense GCCAAGAACCUCAUCAUCU / antisense AGAUGAUGAGGUUCUUGGC” has a target inhibition [1] of 90.8%.
Work on “sense GCCAAGAAGUUUCCUAAUA / antisense UAUUAGGAAACUUCUUGGC” yielded a target inhibition (Renilla luciferase) of 72.2%.
With “sense GGAGCCAAAAGGGUCAUCA / antisense UGAUGACCCUUUUGGCUCC” the target inhibition (GAPDH) was 88.7%.
With “sense GGGCGGCUUUGCCAAGUGC / antisense GCACUUGGCAAAGCCGCCC” the target inhibition (PLK1) was 30.6%.
Work on “sense GGGCGGGCCAGCUCACCAG / antisense CUGGUGAGCUGGCCCGCCC” yielded a target inhibition [1] of 20%.
With “sense GUAUGACAACAGCCUCAAG / antisense CUUGAGGCUGUUGUCAUAC” the target inhibition (GAPDH) was 77.6%.
Work on “sense GUCAUCAUCUCUGCCCCCU / antisense AGGGGGCAGAGAUGAUGAC” yielded a target inhibition (GAPDH) of 69.8%.
Substance “sense GUGUGAACCAUGAGAAGUA / antisense UACUUCUCAUGGUUCACAC” has a target inhibition (GAPDH) of 92.7%.
With “sense UAUUUCCGCAAUUACAUGA / antisense UCAUGUAAUUGCGGAAAUA” the target inhibition (PLK1) was 57.1%.
For “sense UCAUGGGUGUGAACCAUGA / antisense UCAUGGUUCACACCCAUGA”, the target inhibition (GAPDH) was 60.5%.
With “sense UCUACGUGCAAGUGAUGAU / antisense AUCAUCACUUGCACGUAGA” the target inhibition (Renilla luciferase) was 89.5%.
Substance “sense UCUGGUGCAGGAAUGGCUG / antisense CAGCCAUUCCUGCACCAGA” has a target inhibition [1] of 30%.
Work on “sense UCUUACUGCAUGGUUUGAA / antisense UUCAAACCAUGCAGUAAGA” yielded a target inhibition (Renilla luciferase) of 52.3%.
“sense UGAAAGCUUACAUCAACAA / antisense UUGUUGAUGUAAGCUUUCA” showed a target inhibition (DBI) of 33.7%.
In the case of “sense UGACAACUUUGGUAUCGUG / antisense CACGAUACCAAAGUUGUCA”, the target inhibition (GAPDH) is reported as 43%.
“sense UGCUGAUGCCCCCAUGUUC / antisense GAACAUGGGGGCAUCAGCA” was tested, and the target inhibition (GAPDH) was 12.7%.
“sense UGGCCAAGGUCAUCCAUGA / antisense UCAUGGAUGACCUUGGCCA” gave a target inhibition (GAPDH) of 91.5%.
With “sense UGGGAUGCCUGGAAUGAGC / antisense GCUCAUUCCAGGCAUCCCA” the target inhibition (DBI) was 4.9%.
Substance “sense UGUUCGACGACGCCAUUGA / antisense UCAAUGGCGUCGUCGAACA” has a target inhibition [1] of 74%.
In the case of “sense UGUUCGUCAUGGGUGUGAA / antisense UUCACACCCAUGACGAACA”, the target inhibition (GAPDH) is reported as 80.3%.
Work on “sense UUACUGACUUUCCUUGAGU / antisense ACUCAAGGAAAGUCAGUAA” yielded a target inhibition (DBI) of -8.35%.
Substance “sense UUUAUGGCGACAUGUUGUG / antisense CACAACAUGUCGCCAUAAA” has a target inhibition (Renilla luciferase) of 29.4%.
Substance “sense UUUGAGACUUCUUGCCUAA / antisense UUAGGCAAGAAGUCUCAAA” has a target inhibition (PLK1) of 82.2%.
